# Measurements: the Deep4Chem optical property database
# Assay: solvent given as SMILES
# Details: in CCOCC
row,SMILES,emission maximum [nm]
1,CC1=C(C(C)(C)C)C(C)=[N+]2C1=C(C)c1c(C)c(C(C)(C)C)c(C)n1[B-]2(F)F,565.4
2,CC(C)(C)c1ccc2c(c1)c1cc3c4cc(C(C)(C)C)ccc4c4c5c6ccc(C(C)(C)C)cc6c6cc7c8cc(C(C)(C)C)ccc8c8c2c1c(c34)c(c78)c65,679.9
3,CC(C)[Si]1(C(C)C)c2cc(C=C(C#N)C#N)ccc2-c2ccc(N(C)C)cc21,584

# Same assay, conditions: in CN(C)C=O
row,SMILES,emission maximum [nm]
1,N#C/C(=C/Nc1ccc(C#N)cc1)c1nc(-c2ccccc2)cs1,436
2,CN(C)c1ccc(/C=C/c2cc[n+](CCCCCCCCCCCC[n+]3ccc(/C=C/c4ccc(N(C)C)cc4)cc3)cc2)cc1,602
3,O=Cc1cc(O)c(C=O)cc1O,492
4,F[B-]1(F)OC(c2ccccc2)=Nc2sc(-c3ccccc3)n[n+]21,419
5,CC1=C(C(C)(C)C)C(C)=[N+]2C1=C(C)c1c(C)c(C(C)(C)C)c(C)n1[B-]2(F)F,565.4

# Same assay, conditions: in CN(C)P(=O)(N(C)C)N(C)C
row,SMILES,emission maximum [nm]
1,O=Cc1cc(O)c(C=O)cc1O,493

# Same assay, conditions: in CNC=O
row,SMILES,emission maximum [nm]
1,O=Cc1cc(O)c(C=O)cc1O,479
2,CC1=C(C(C)(C)C)C(C)=[N+]2C1=C(C)c1c(C)c(C(C)(C)C)c(C)n1[B-]2(F)F,560.6

# Same assay, conditions: in CO
row,SMILES,emission maximum [nm]
1,CN(C)c1ccc(/C=C/c2cc[n+](CCCCCCCCCCCC[n+]3ccc(/C=C/c4ccc(N(C)C)cc4)cc3)cc2)cc1,597
2,CCCSc1ccc2n1[B-](F)(F)[N+]1=CC=CC1=C2c1ccccc1,583
3,COC(=O)[C@H](Cc1ccc2oc3c(c2c1)=CC1=C(c2ccc(OC)cc2)c2cc4c5cc(C[C@H](NC(=O)OC(C)(C)C)C(=O)OC)ccc5oc4n2[B-](F)(F)[N+]=31)NC(=O)OC(C)(C)C,595
4,CCOC(=O)C1=CN(c2ccccc2)C=CC1c1ccccc1 (stereo not given),442
5,O=Cc1cc(O)c(C=O)cc1O,492
6,CC1=C(C(C)(C)C)C(C)=[N+]2C1=C(C)c1c(C)c(C(C)(C)C)c(C)n1[B-]2(F)F,561.2
7,CC(=O)Nc1ccc(S(=O)(=O)O)c(/N=N/c2c(O)c3ccccc3n(C)c2=O)c1,512
8,CCC1=C(C)C2=C(C)c3c(I)c(I)cn3[B-](F)(F)[N+]2=C1C,533.5
9,COc1ccc(-c2nc(-c3ccccc3OC)[nH]c2-c2ccc(OC)cc2)cc1,392
10,C(C1=[NH+]c2cccc3cccc1c23)=c1[nH]c2cccc3cccc1c32,617

# Same assay, conditions: in COC(C)=O
row,SMILES,emission maximum [nm]
1,CC1=C(C(C)(C)C)C(C)=[N+]2C1=C(C)c1c(C)c(C(C)(C)C)c(C)n1[B-]2(F)F,561.8

# Same assay, conditions: in CS(C)=O
row,SMILES,emission maximum [nm]
1,CN(C)c1ccc(/C=C/c2cc[n+](CCCCCCCCCCCC[n+]3ccc(/C=C/c4ccc(N(C)C)cc4)cc3)cc2)cc1,607
2,O=Cc1cc(O)c(C=O)cc1O,495
3,CC(=O)Nc1ccc(S(=O)(=O)O)c(/N=N/c2c(O)c3ccccc3n(C)c2=O)c1,526
4,CN(C)c1ccc(/C=C/c2cc(/C=C/c3ccc(N(C)C)cc3)nc(/C=C/c3ccccc3)n2)cc1,601
5,CCCCN1/C(=C/C=C/C2=[N+](C)c3ccccc3C2(C)C)C(C)(C)c2c1ccc1ccccc21,586
6,CC(C)[Si]1(C(C)C)c2cc(C=C(C#N)C#N)ccc2-c2ccc(N(C)C)cc21,714

# Same assay, conditions: in Cc1ccccc1
row,SMILES,emission maximum [nm]
1,CN(C)c1ccc(C2=Nc3sc4ccccc4[n+]3[B-](F)(F)O2)cc1,450
2,N#C/C(=C/Nc1ccc(C#N)cc1)c1nc(-c2ccccc2)cs1,438
3,COc1ccc(C2=[N+]3C(=Nc4c(-c5ccccc5-c5ccc(C(C)(C)C)cc5)cc(-c5ccc(OC)cc5)n4[B-]3(F)F)c3c2c2cc(C(C)(C)C)ccc2c2ccccc32)cc1,723
4,F[B-]1(F)OC(c2ccccc2)=Nc2sc(-c3ccccc3)n[n+]21,410
5,CC(=O)Nc1ccc(S(=O)(=O)O)c(/N=N/c2c(O)c3ccccc3n(C)c2=O)c1,517
6,CN(C)c1ccc(/C=C/c2cc(/C=C/c3ccc(N(C)C)cc3)nc(/C=C/c3ccccc3)n2)cc1,483
7,CCCCN1C(=O)c2cccc3cccc(c23)C1=O,392
8,COc1ccc(C2=CC(c3ccccc3)=[N+]3C2=Nc2c(-c4ccc(OC)cc4)cc(-c4ccccc4)n2[B-]3(F)F)cc1,697
9,CC(C)(C)c1ccc2c(c1)c1cc3c4cc(C(C)(C)C)ccc4c4c5c6ccc(C(C)(C)C)cc6c6cc7c8cc(C(C)(C)C)ccc8c8c2c1c(c34)c(c78)c65,685.4
10,N#Cc1cc(-n2c3ccccc3c3ccccc32)c(-n2c3ccccc3c3ccccc32)cc1-c1cc(-n2c3ccccc3c3ccccc32)c(-n2c3ccccc3c3ccccc32)cc1C#N,458
11,Cc1ccc(N2C(c3ccccc3[NH-])=[NH+]C(c3ccccc3)C2c2ccccc2)cc1 (stereo not given),572
12,CC(C)(C)c1ccc(N(c2ccc(S(=O)(=O)c3ccc(S(=O)(=O)c4ccc(N(c5ccc(C(C)(C)C)cc5)c5ccccc5C(C)(C)C)cc4)cc3)cc2)c2ccccc2C(C)(C)C)cc1,454

# Same assay, conditions: in ClC(Cl)Cl
row,SMILES,emission maximum [nm]
1,CN(C)c1ccc(/C=C/c2cc[n+](CCCCCCCCCCCC[n+]3ccc(/C=C/c4ccc(N(C)C)cc4)cc3)cc2)cc1,580
2,F[B-]1(F)OC(c2ccccc2)=Nc2sc(-c3ccccc3)n[n+]21,413
3,N#Cc1cc2sccc2c2c1ccc1ccccc12,382
4,CCCCCCN1C(=O)c2cccc3c(-c4ccc(-c5ccc(-c6ccc7c8c(cccc68)C(=O)N(CCCCCC)C7=O)s5)s4)ccc(c23)C1=O,542
5,COc1ccc(C2=CC(c3ccccc3)=[N+]3C2=Nc2c(-c4ccc(OC)cc4)cc(-c4ccccc4)n2[B-]3(F)F)cc1,695

# Further lines, results first:
row,emission maximum [nm],SMILES
1,453,COc1ccc2c(-c3nc(-c4ccccc4F)no3)cc(=O)oc2c1
2,427.35,CCCCCCn1c2cc(/C=C/c3cccs3)ccc2c2ccc(/C=C/c3cccs3)cc21
3,567,CC(C)C[Si](C#Cc1c2c(=O)c3ccccc3c2c(C#C[Si](CC(C)C)(CC(C)C)CC(C)C)c2c(=O)c3ccccc3c12)(CC(C)C)CC(C)C
4,643,F[B-]1(F)n2c(ccc2-c2cccs2)C(c2ccc(Br)cc2)=C2C=CC(c3cccs3)=[N+]21

# Same assay, conditions: in ClCCl
row,SMILES,emission maximum [nm]
1,CN(C)c1ccc(C2=Nc3sc4ccccc4[n+]3[B-](F)(F)O2)cc1,467
2,N#C/C(=C/Nc1ccc(C#N)cc1)c1nc(-c2ccccc2)cs1,437
3,CC(C)(C)c1ccc(N(c2ccc(C(C)(C)C)cc2)c2cc(N(c3ccc(C(C)(C)C)cc3)c3ccc(C(C)(C)C)cc3)c3ccc4cc(C(C)(C)C)cc5ccc2c3c54)cc1,491
4,F[B-]1(F)OC(c2ccccc2)=Nc2sc(-c3ccccc3)n[n+]21,412
5,CC(=O)Nc1ccc(S(=O)(=O)O)c(/N=N/c2c(O)c3ccccc3n(C)c2=O)c1,528
6,CN(C)c1ccc(/C=C/c2cc(/C=C/c3ccc(N(C)C)cc3)nc(/C=C/c3ccccc3)n2)cc1,537
7,CCN(CC)c1ccc2cc(-c3nc4cc(C(=O)Nc5ccc(C)cc5[N+](=O)[O-])ccc4o3)c(=O)oc2c1,496
8,CC(C)[Si]1(C(C)C)c2cc(C=C(C#N)C#N)ccc2-c2ccc(N(C)C)cc21,644
9,COc1ccc(C2=C(c3ccc(OC)cc3)c3cccc4c3c(cc3nc5ccccc5nc34)O2)cc1,572

# Next, values leading:
row,emission maximum [nm],SMILES
1,594,CCCSc1ccc2n1[B-](F)(F)[N+]1=CC=CC1=C2c1ccccc1
2,724,Fc1ccc(C2=[N+]3C(=Nc4c5ccccc5c(-c5ccc(F)cc5)n4[B-]3(F)F)c3ccccc32)cc1
3,635,Cn1c(=O)cc(C(=O)c2ccccc2)c2sc(-c3ccc(N(c4ccccc4)c4ccccc4)cc3)cc21
4,377,CCCCC(CC)COc1cc(OCC(CC)CCCC)c2c#cc3ccc4oc5ccc(c#cc6cc(c#cc7ccc8oc9ccc(c#cc1c2)cc9c8c7)c(C(CCCC)OCCC)cc6C(CCCC)OCCC)cc5c4c3 (stereo not given)

# Same assay, conditions: in NC=O
row,SMILES,emission maximum [nm]
1,O=Cc1cc(O)c(C=O)cc1O,490

# Same assay, conditions: in O
row,SMILES,emission maximum [nm]
1,CN(C)c1ccc(/C=C/c2cc[n+](CCCCCCCCCCCC[n+]3ccc(/C=C/c4ccc(N(C)C)cc4)cc3)cc2)cc1,597
2,CC(=O)Nc1ccc(S(=O)(=O)O)c(/N=N/c2c(O)c3ccccc3n(C)c2=O)c1,549

# Same assay, conditions: in OCC(F)(F)F
row,SMILES,emission maximum [nm]
1,CC1=C(C(C)(C)C)C(C)=[N+]2C1=C(C)c1c(C)c(C(C)(C)C)c(C)n1[B-]2(F)F,561.2
2,CCC1=C(C)C2=C(C)c3c(I)c(I)cn3[B-](F)(F)[N+]2=C1C,530.5

# Same assay, conditions: in c1cc(-n2c3ccccc3c3ccccc32)nc(-n2c3ccccc3c3ccccc32)c1
row,SMILES,emission maximum [nm]
1,CC(C)(C)c1ccc(N(c2ccc(S(=O)(=O)c3ccc(S(=O)(=O)c4ccc(N(c5ccc(C(C)(C)C)cc5)c5ccccc5C(C)(C)C)cc4)cc3)cc2)c2ccccc2C(C)(C)C)cc1,463.53

# Same assay, conditions: in c1ccccc1
row,SMILES,emission maximum [nm]
1,CC(C)[Si]1(C(C)C)c2cc(C=C(C#N)C#N)ccc2-c2ccc(N(C)C)cc21,566

# Same assay, conditions: in c1ccncc1
row,SMILES,emission maximum [nm]
1,CN(C)c1ccc(/C=C/c2cc[n+](CCCCCCCCCCCC[n+]3ccc(/C=C/c4ccc(N(C)C)cc4)cc3)cc2)cc1,598
